Laboratory results reported in patent US20200060276A1, “THIAZOLE COMPOUND AND HERBICIDE” (OAT Agrio Co., Ltd., priority 2017, published 2020).

Key:
Type in all cases: in vivo
[1] = system: Monochoria vaginalis; experiment: Test for Herbicidal Effect in Flooding Treatment (#1), MONVA; conditions: flooding treatment at seeding, dose 2 kg/ha, visual observation on day 21
Summary of the method: (§1)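 Sieved soil in cups was flooded and left 24 h before weed seeds were sown. Compounds in acetone, diluted with Tween 80-containing water, were dropped over the whole surface at 2 kg/ha. After 21 days in a glasshouse, growth inhibition was scored visually from 0 (<10%) to 5 (≥90% or complete withering).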

[2] = system: Echinochloa crus-galli (L.) P. Beauv. var. formosensis Ohwi; experiment: Test for Herbicidal Effect in Flooding Treatment (#2), ECHDG at 2-2.5 leaf stage; conditions: for ECHDG (2-2.5L) #2 herbicidal effect (growth inhibition grade): flooding treatment at 2-2.5 leaf stage, dose 0.2 kg/ha, visual observation on day 21
Summary of the method: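 Scoring is a visual 0–5 scale of growth inhibition (0 below 10%, 5 at 90% or more or full withering), taken 21 days after treatment in a glasshouse. Dose was 0.2 kg/ha, applied as acetone/Tween 80 aqueous solution onto flooded soil once seedlings reached the 2–2.5 leaf stage.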

[3] = system: Scirpus juncoides; experiment: Test for Herbicidal Effect in Flooding Treatment (#1), SCIJU; conditions: flooding treatment at seeding, dose 2 kg/ha, visual observation on day 21
Summary of the method: as §1

[4] = system: Echinochloa crus-galli (L.) P. Beauv. var. formosensis Ohwi; experiment: Test for Herbicidal Effect in Flooding Treatment (#1), ECHDG; conditions: flooding treatment at seeding, dose 2 kg/ha, visual observation on day 21
Summary of the method: as §1

[5] = system: Cyperus microiria; experiment: Test for Herbicidal Effect in Flooding Treatment (#1), CYMIC; conditions: flooding treatment at seeding, dose 2 kg/ha, visual observation on day 21
Summary of the method: as §1

Row | SMILES | MONVA #1 herbicidal effect (growth inhibition grade) [1] | ECHDG (2-2.5L) #2 herbicidal effect (growth inhibition grade) [2] | SCIJU #1 herbicidal effect (growth inhibition grade) [3] | ECHDG #1 herbicidal effect (growth inhibition grade) [4] | CYMIC #1 herbicidal effect (growth inhibition grade) [5] | inhibition at 200 g/ha ([2]; Echinochloa crus-galli, 504 h, flooding treatment (#2), ECHDG at 2-2.5 leaf stage, dose of 0.2 kg/ha, day 21, visual observation, read-out: growth inhibition effect) [%]
1 | CCOc1cc(F)cc(F)c1CS(=O)(=O)c1ncc(Cl)s1 [Compound 1C-31] | 5 (Growth inhibition effect is equal to or greater than 90%, or complete withering is achieved) | 5 (Growth inhibition effect is equal to or greater than 90%, or complete withering is achieved) | 5 (Growth inhibition effect is equal to or greater than 90%, or complete withering is achieved) | 5 (Growth inhibition effect is equal to or greater than 90%, or complete withering is achieved) | 5 (Growth inhibition effect is equal to or greater than 90%, or complete withering is achieved) | 
2 | CCOc1c(F)ccc(CS(=O)(=O)c2ncc(Cl)s2)c1F [Compound 1C-81] | 5 (Growth inhibition effect is equal to or greater than 90%, or complete withering is achieved) | 5 (Growth inhibition effect is equal to or greater than 90%, or complete withering is achieved) | 5 (Growth inhibition effect is equal to or greater than 90%, or complete withering is achieved) | 5 (Growth inhibition effect is equal to or greater than 90%, or complete withering is achieved) | 5 (Growth inhibition effect is equal to or greater than 90%, or complete withering is achieved) | 
3 | CCCOc1cc(Cl)c(CS(=O)(=O)c2ncc(Cl)s2)c(Cl)c1 [Compound 1C-110] | 5 (Growth inhibition effect is equal to or greater than 90%, or complete withering is achieved) | 5 (Growth inhibition effect is equal to or greater than 90%, or complete withering is achieved) | 5 (Growth inhibition effect is equal to or greater than 90%, or complete withering is achieved) | 5 (Growth inhibition effect is equal to or greater than 90%, or complete withering is achieved) | 5 (Growth inhibition effect is equal to or greater than 90%, or complete withering is achieved) | 
4 | COc1cc(Cl)c(CS(=O)(=O)c2ncc(Cl)s2)c(Cl)c1 [Compound 1C-91] | 5 (Growth inhibition effect is equal to or greater than 90%, or complete withering is achieved) | 5 (Growth inhibition effect is equal to or greater than 90%, or complete withering is achieved) | 5 (Growth inhibition effect is equal to or greater than 90%, or complete withering is achieved) | 5 (Growth inhibition effect is equal to or greater than 90%, or complete withering is achieved) | 5 (Growth inhibition effect is equal to or greater than 90%, or complete withering is achieved) | 
5 | CCOc1c(F)cc(F)cc1CS(=O)(=O)c1ncc(Cl)s1 [Compound 1C-21] | 5 (Growth inhibition effect is equal to or greater than 90%, or complete withering is achieved) | 5 (Growth inhibition effect is equal to or greater than 90%, or complete withering is achieved) | 5 (Growth inhibition effect is equal to or greater than 90%, or complete withering is achieved) | 5 (Growth inhibition effect is equal to or greater than 90%, or complete withering is achieved) | 5 (Growth inhibition effect is equal to or greater than 90%, or complete withering is achieved) | ≥ 90
6 | CCOc1c(Cl)cc(Cl)cc1CS(=O)(=O)c1ncc(Cl)s1 [Compound 1C-23] | 5 (Growth inhibition effect is equal to or greater than 90%, or complete withering is achieved) | 3 (Growth inhibition effect equal to or greater than 50%, and less than 70%) | 5 (Growth inhibition effect is equal to or greater than 90%, or complete withering is achieved) | 5 (Growth inhibition effect is equal to or greater than 90%, or complete withering is achieved) | 5 (Growth inhibition effect is equal to or greater than 90%, or complete withering is achieved) | 
7 | CCOc1c(C)cccc1CS(=O)(=O)c1ncc(Cl)s1 [Compound 1C-11] | 5 (Growth inhibition effect is equal to or greater than 90%, or complete withering is achieved) | 5 (Growth inhibition effect is equal to or greater than 90%, or complete withering is achieved) | 5 (Growth inhibition effect is equal to or greater than 90%, or complete withering is achieved) | 5 (Growth inhibition effect is equal to or greater than 90%, or complete withering is achieved) | 5 (Growth inhibition effect is equal to or greater than 90%, or complete withering is achieved) | 
8 | COc1ccc(F)c(CS(=O)(=O)c2ncc(Cl)s2)c1 [Compound 1C-69] | 5 (Growth inhibition effect is equal to or greater than 90%, or complete withering is achieved) | 4 (Growth inhibition effect is equal to or greater than 70%, and less than 90%) | 5 (Growth inhibition effect is equal to or greater than 90%, or complete withering is achieved) | 5 (Growth inhibition effect is equal to or greater than 90%, or complete withering is achieved) | 5 (Growth inhibition effect is equal to or greater than 90%, or complete withering is achieved) | 
9 | CCOc1c(C)ccc(C)c1CS(=O)(=O)c1ncc(Cl)s1 [Compound 1C-28] | 5 (Growth inhibition effect is equal to or greater than 90%, or complete withering is achieved) | 5 (Growth inhibition effect is equal to or greater than 90%, or complete withering is achieved) | 5 (Growth inhibition effect is equal to or greater than 90%, or complete withering is achieved) | 5 (Growth inhibition effect is equal to or greater than 90%, or complete withering is achieved) | 5 (Growth inhibition effect is equal to or greater than 90%, or complete withering is achieved) | 
10 | CCOc1cc(CS(=O)(=O)c2ncc(Cl)s2)cc(F)c1F [Compound 1C-83] | 5 (Growth inhibition effect is equal to or greater than 90%, or complete withering is achieved) | 4 (Growth inhibition effect is equal to or greater than 70%, and less than 90%) | 5 (Growth inhibition effect is equal to or greater than 90%, or complete withering is achieved) | 5 (Growth inhibition effect is equal to or greater than 90%, or complete withering is achieved) | 5 (Growth inhibition effect is equal to or greater than 90%, or complete withering is achieved) | 
11 | CCOc1c(C)cc(F)cc1CS(=O)(=O)c1ncc(Cl)s1 [Compound 1C-25] | 5 (Growth inhibition effect is equal to or greater than 90%, or complete withering is achieved) | 5 (Growth inhibition effect is equal to or greater than 90%, or complete withering is achieved) | 5 (Growth inhibition effect is equal to or greater than 90%, or complete withering is achieved) | 5 (Growth inhibition effect is equal to or greater than 90%, or complete withering is achieved) | 5 (Growth inhibition effect is equal to or greater than 90%, or complete withering is achieved) | 
12 | O=S(=O)(Cc1cc(Br)ccc1OC(F)(F)F)c1ncc(Cl)s1 [Compound 1C-47] | 5 (Growth inhibition effect is equal to or greater than 90%, or complete withering is achieved) | 4 (Growth inhibition effect is equal to or greater than 70%, and less than 90%) | 5 (Growth inhibition effect is equal to or greater than 90%, or complete withering is achieved) | 5 (Growth inhibition effect is equal to or greater than 90%, or complete withering is achieved) | 5 (Growth inhibition effect is equal to or greater than 90%, or complete withering is achieved) | 
